Reference: patent US11304974B2, “Nanosystems comprising silver and antibiotics and their use for the treatment of bacterial infections” (priority 2017, dated 2022)
Like-named read-outs stand apart in the source and are kept apart here.

Columns and labels:
E. coli BLEE + = assay: Silver-antibiotics interaction study, MicroScan (Example 4); type: cell-based, Escherichia coli; conditions: subinhibitory colloidal silver (½ or 1/10 MIC)
Experimental: (§1) The effect of subinhibitory concentrations of colloidal silver (namely, ½ and 1/10 dilution of the MIC obtained in Example 3) in the presence of different types of antibiotics was tested.
(§2) For this, an automated equipment MicroScan AutoScan 4 (Siemens) was used, using Gram negative (Becman Coulter NM37) and Gram positive (Becman Coulter PM28) cards.
(§3) Each of these broths served as inoculum for the cards with antibiotics (for each strain, thus 3 cards were prepared). • Incubating the plates with antibiotics (in presence and absence of silver) at 37° C. for 24 h. • Reading the cards by use of LabPro software, and interpretation of the obtained values of MIC (determine if the silver reduces the initial MCI of each antibiotic).

[1] = test system: Pseudomonas MexR Mutant (efflux pump over-expression); assay: as above; type: cell-based, Pseudomonas aeruginosa; conditions: colloidal silver at ½ MIC
Excerpt: as §2

[2] = test system: Pseudomonas DacB Mutant (hiperproducing AMPC); assay: as above; type: cell-based, Pseudomonas aeruginosa; conditions: subinhibitory colloidal silver (½ or 1/10 MIC)
Experimental: as §1, §2, §3

[3] = test system: S. aureus Sa-12 (strain 11); assay: Epsilometry E-test, absence and presence of silver (Example 5); type: cell-based; conditions: Staphylococcus aureus, strain 11 (S. aureus Sa-12)
Experimental: (§4) In order to evaluate the synergy of collargol-antibiotics an epsilometry E-test was carried out. Said test is based on the agar diffusion method and relates to using a strip with a predefined steady gradient of 15 concentrations of the antibiotic being tested. After strain growth, an elliptical inhibition halo, being the MIC the antibiotic concentration corresponding to the cutting point.
(§5) It was performed for the antibiotics vancomycin, linezolid and tedizolid, in absence and presence of silver (½ and 1/10 MIC).

[4] = test system: S. aureus Sa-3 (strain 3); assay: as above; type: cell-based; conditions: Staphylococcus aureus, strain 3 (S. aureus Sa-3)
Experimental: as §4, §5

[5] = test system: S. aureus Sa-10 (strain 9); assay: as above; type: cell-based; conditions: Staphylococcus aureus, strain 9 (S. aureus Sa-10)
Experimental: as §4, §5

[6] = test system: S.aureus ATCC 700698 Sa-SARM (strain 15); assay: as above; type: cell-based; conditions: Staphylococcus aureus, ATCC700698, strain 15 (S.aureus ATCC 700698, Sa-SARM)
Experimental: as §4, §5

[7] = test system: S. aureus Sa-11 (strain 10); assay: as above; type: cell-based; conditions: Staphylococcus aureus, strain 10 (S. aureus Sa-11)
Experimental: as §4, §5

[8] = test system: S. epidermidis Se-1 (strain 14); assay: as above; type: cell-based; conditions: Staphylococcus epidermidis, strain 14 (S. epidermidis Se-1)
Experimental: as §4, §5

[9] = test system: S. aureus Sa-13 (strain 12); assay: as above; type: cell-based; conditions: Staphylococcus aureus, strain 12 (S. aureus Sa-13)
Experimental: as §4, §5

Klebsiella BLEE + = assay: Silver-antibiotics interaction study, MicroScan (Example 4); type: cell-based, Klebsiella pneumoniae; conditions: subinhibitory colloidal silver (½ or 1/10 MIC)
Experimental: as §1, §2, §3

[10] = test system: S. aureus Sa-1 (strain 1); assay: Epsilometry E-test, absence and presence of silver (Example 5); type: cell-based; conditions: Staphylococcus aureus, strain 1 (S. aureus Sa-1)
Experimental: as §4, §5

[11] = test system: S. aureus Sa-9 (strain 8); assay: as above; type: cell-based; conditions: Staphylococcus aureus, strain 8 (S. aureus Sa-9)
Experimental: as §4, §5

[12] = MH agar with 1/10 MIC of colargol, read-out: MIC (E-test) MH-1/10 MIC
[13] = MH agar with ½ MIC of colargol, read-out: MIC (E-test) MH-½ MIC
[14] = MH agar without silver, read-out: MIC (E-test) MH (without silver)

## Gentamicin
E. coli BLEE +
  Effect of silver on the strain's sensitivity to the antibiotic: becomes sensitive

## CO/N=C(\C(=O)N[C@@H]1C(=O)N2C(C(=O)O)=C(COC(C)=O)CS[C@H]12)c1csc(N)n1 [cefotaxime, Cefotaxime]
[1]
  Effect of silver on the strain's sensitivity to the antibiotic: improvement in the MIC

## CCN1CCN(C(=O)N[C@@H](C(=O)N[C@@H]2C(=O)N3[C@@H]2SC(C)(C)[C@@H]3C(=O)O)c2ccccc2)C(=O)C1=O [Piperacillin]
[2]
  Effect of silver on the strain's sensitivity to the antibiotic: moderate effect improving the MIC values

## CC(=O)NC[C@H]1CN(c2ccc(N3CCOCC3)c(F)c2)C(=O)O1 [Linezolid]
[3]; [12]
  MIC: 0.5 µg/mL
[3]; [13]
  MIC: 0.5 µg/mL
[3]; [14]
  MIC: 1 µg/mL
[4]; [12]
  MIC: 1.5 µg/mL
[4]; [13]
  MIC: 1 µg/mL
[4]; [14]
  MIC: 1.5 µg/mL
[5]; [12]
  MIC: 1 µg/mL
[5]; [13]
  MIC: 0.75 µg/mL
[5]; [14]
  MIC: 0.75 µg/mL
[6]; [12]
  MIC: 0.5 µg/mL
[6]; [13]
  MIC: 0.38 µg/mL
[6]; [14]
  MIC: 0.5 µg/mL
[7]; [12]
  MIC: 1.5 µg/mL
[7]; [13]
  MIC: 1.5 µg/mL
[7]; [14]
  MIC: 1.5 µg/mL
[8]; [12]
  MIC: 0.75 µg/mL
[8]; [13]
  MIC: 0.5 µg/mL
[8]; [14]
  MIC: 0.75 µg/mL
[9]; [12]
  MIC: 0.38 µg/mL
[9]; [13]
  MIC: 0.5 µg/mL
[9]; [14]
  MIC: 0.5 µg/mL

## NC[C@H]1O[C@H](O[C@H]2[C@H](O)[C@@H](O[C@H]3O[C@H](CO)[C@@H](O)[C@H](N)[C@H]3O)[C@H](N)C[C@@H]2N)[C@H](N)C[C@@H]1O [tobramycin, Tobramycin]
E. coli BLEE +
  Effect of silver on the strain's sensitivity to the antibiotic: becomes sensitive

## C[C@@H]1O[C@@H]1P(=O)(O)O [Fosfomicine, Fosfomycin]
[2]
  Effect of silver on the strain's sensitivity to the antibiotic: change to sensitive

## CO/N=C(\C(=O)N[C@@H]1C(=O)N2C(C(=O)[O-])=C(C[N+]3(C)CCCC3)CS[C@H]12)c1csc(N)n1 [Cefepime]
[2]
  Effect of silver on the strain's sensitivity to the antibiotic: moderate effect improving the MIC values

## Colistin
[1]
  Effect of silver on the strain's sensitivity to the antibiotic: improvement in the MIC
[2]
  Effect of silver on the strain's sensitivity to the antibiotic: moderate effect improving the MIC values

## C[C@H]1[C@H](NC(=O)/C(=N\OC(C)(C)C(=O)O)c2csc(N)n2)C(=O)N1S(=O)(=O)O [aztreonam, Aztreonam]
Klebsiella BLEE +
  Effect of silver on the strain's sensitivity to the antibiotic: becomes sensitive
[2]
  Effect of silver on the strain's sensitivity to the antibiotic: change to sensitive

## Cn1nnc(-c2ccc(-c3ccc(N4C[C@H](CO)OC4=O)cc3F)cn2)n1 [Tedizolid]
[3]; [13]
  MIC: 0.25 µg/mL
[3]; [14]
  MIC: 0.25 µg/mL
[4]; [12]
  MIC: 0.19 µg/mL
[4]; [13]
  MIC: 0.125 µg/mL
[4]; [14]
  MIC: 0.19 µg/mL
[5]; [12]
  MIC: 0.38 µg/mL
[5]; [13]
  MIC: 0.38 µg/mL
[5]; [14]
  MIC: 0.5 µg/mL
[10]; [12]
  MIC: 0.25 µg/mL
[10]; [13]
  MIC: 0.19 µg/mL
[10]; [14]
  MIC: 0.19 µg/mL
[7]; [13]
  MIC: 0.25 µg/mL
[7]; [14]
  MIC: 0.38 µg/mL
[8]; [12]
  MIC: 0.38 µg/mL
[8]; [13]
  MIC: 0.25 µg/mL
[8]; [14]
  MIC: 0.38 µg/mL
[11]; [12]
  MIC: 0.19 µg/mL
[11]; [13]
  MIC: 0.19 µg/mL
[11]; [14]
  MIC: 0.25 µg/mL
